Assays:
[1] = test system: HeLa; test: Cytotoxicity against human HeLa cells after 72 hrs by MTT assay; type: functional, cell-based
[2] = test system: KB; test: Cytotoxicity against human KB cells after 72 hrs by MTT assay; type: functional, cell-based

| Compound | IC50 [1] [µM] | IC50 [2] [µM] |
| --- | --- | --- |
| COc1cc([C@@H]2c3cc4c(cc3[C@H](O)[C@H]3COC(=O)[C@H]23)OCO4)cc(OC)c1OC(C)=O | 0.076 | 0.05 |
| COc1cc([C@@H]2c3cc4c(cc3[C@@H](O[C@@H]3O[C@H](CO)[C@@H](O)[C@H](O)[C@H]3O)[C@H]3COC(=O)[C@H]23)OCO4)cc(OC)c1O | 0.048 | < 0.01 |
| COc1cc([C@@H]2c3cc4c(cc3[C@H](O[C@@H]3O[C@H](CO)[C@@H](O)[C@H](O)[C@H]3O)[C@H]3COC(=O)[C@H]23)OCO4)cc(OC)c1O | 5.33 | 9.51 |
| COc1cc([C@@H]2c3cc4c(cc3C[C@H]3COC(=O)[C@@H]32)OCO4)cc(OC)c1O[C@@H]1O[C@H](CO)[C@@H](O)[C@H](O)[C@H]1O | 0.87 | 2.09 |
| COc1cc([C@@H]2c3cc4c(cc3[C@H](O[C@@H]3O[C@H](CO[C@@H]5O[C@H](CO)[C@@H](O)[C@H](O)[C@H]5O)[C@@H](O)[C@H](O)[C@H]3O)[C@H]3COC(=O)[C@@H]23)OCO4)cc(OC)c1OC | > 100 | > 100 |
| COc1cc([C@@H]2c3cc4c(cc3[C@H](O)[C@H]3COC(=O)[C@H]23)OCO4)cc(OC)c1O | 0.08 | 0.064 |
| COc1cc([C@@H]2c3cc4c(cc3[C@H](O[C@@H]3O[C@H](CO)[C@@H](O)[C@H](O)[C@H]3O)[C@H]3COC(=O)[C@H]23)OCO4)cc(OC)c1OC | 6.65 | 9.25 |
| COc1cc(-c2c3c(c(O)c4cc5c(cc24)OCO5)COC3=O)cc(OC)c1O | > 100 | 84.7 |
| COc1cc([C@@H]2c3cc(O)c(O)cc3[C@H](O)[C@H]3COC(=O)[C@H]23)cc(OC)c1O | 79.6 | > 100 |
| COc1cc([C@@H]2c3cc4c(cc3C[C@H]3COC(=O)[C@@H]32)OCO4)cc(OC)c1O [4'-DEMETHYLDEOXYPODOPHYLLOTOXIN] | 0.074 | 0.0078 |
| COc1cc([C@@H]2c3cc(O)c(O)cc3[C@H](O)[C@H]3COC(=O)[C@H]23)cc(OC)c1OC [6,7-O,O-DEMETHYLENEPODOPHYLLOTOXIN] | > 100 | > 100 |
| COc1cc(-c2c3c(c(O)c4cc5c(cc24)OCO5)COC3=O)cc(OC)c1OC [DEHYDROPODOPHYLLOTOXIN] | 8.28 | 9.79 |
| COc1cc([C@@H]2c3cc4c(cc3C[C@H]3COC(=O)[C@@H]32)OCO4)cc(OC)c1OC [DESOXYPODOPHYLLOTOXIN] | 0.0069 | 0.0089 |
| COc1cc([C@@H]2c3cc4c(cc3[C@@H](O[C@@H]3O[C@@H]5CO[C@@H](C)O[C@H]5[C@H](O)[C@H]3O)[C@H]3COC(=O)[C@H]23)OCO4)cc(OC)c1O [ETOPOSIDE] | 4 | 10 |
| COc1cc([C@@H]2c3cc4c(cc3C(=O)[C@@H]3COC(=O)[C@H]23)OCO4)cc(OC)c1OC [ISOPICROPODOPHYLLONE] | 32.1 | > 100 |
| COc1cc([C@@H]2c3cc4c(cc3[C@H](O)[C@H]3COC(=O)[C@H]23)OCO4)cc(OC)c1OC [PODOFILOX] | 0.069 | 0.056 |
| COc1cc([C@@H]2c3cc4c(cc3[C@H](O[C@@H]3O[C@H](COC(C)=O)[C@@H](O)[C@H](O)[C@H]3O)[C@H]3COC(=O)[C@H]23)OCO4)cc(OC)c1OC [SINOLIGNAN A] | 3.77 | 8.76 |
| COc1cc([C@@H]2c3cc4c(cc3[C@H](O[C@@H]3O[C@H](CO[C@@H]5O[C@H](CO)[C@@H](O)[C@H](O)[C@H]5O)[C@@H](O)[C@H](O)[C@H]3O)[C@H]3COC(=O)[C@@H]23)OCO4)cc(OC)c1O [SINOLIGNAN B] | > 100 | > 100 |
